Reference: patent US12643935B2, “PD-L1 binding peptides” (UNIVERSITY OF SOUTHERN CALIFORNIA, priority 2020, dated 2026)
pKd: −log10 of the molar value. “Also recorded” adds a separate entry of the source.

Experiments:
[1] = biological target: T1, hPD-L1 expressed on the surface of Chinese hamster ovary (CHO) cells (CHO-hPD-L1) (Homo sapiens, UniProt Q9NZQ7); assay: Antibody competition by flow cytometry on CHO-hPD-L1 cells; assay type: cell-based
T1 construct: expressed in transfected cells; host or cells: CHO
T1 sequence (Q9NZQ7 19-290): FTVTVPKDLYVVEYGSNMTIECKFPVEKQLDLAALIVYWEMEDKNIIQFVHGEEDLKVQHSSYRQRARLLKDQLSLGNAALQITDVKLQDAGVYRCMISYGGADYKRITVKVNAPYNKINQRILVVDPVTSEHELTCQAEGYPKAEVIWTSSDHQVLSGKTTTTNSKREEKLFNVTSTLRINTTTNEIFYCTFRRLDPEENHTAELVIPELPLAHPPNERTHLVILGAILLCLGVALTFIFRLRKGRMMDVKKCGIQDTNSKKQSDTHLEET
Text: To do this, we measured SPAM peptide inhibition of anti-PD-L1 antibody binding to hPD-L1 expressed on the surface of Chinese hamster ovary (CHO) cells (CHO-hPD-L1). […] Cells were washed again and analyzed by flow cytometry (FIG. 5B-C).
Cells were then washed three times with cold serum free DMEM. Cells were subsequently processed by flow cytometry with a BD FACSCalibur system using the FL1 channel. FlowJo v10.1 was used to gate to the major population and median FL1 fluorescence reported.

hPD-L1 [2] = biological target: T2, hPD-L1 (Homo sapiens, UniProt Q9NZQ7); assay: Radiolabeled [35S] peptide binding assay on glycosylated hPD-L1*; set-up: The hPD-L1* vector included amino acids A18-T239, an Avi Tag and a hexahistidine tag; hexahistidine tag; made in house; host or cells: Expi293F
Method: (§1) SPAM Peptide Selectively Binds to hPD-L1. SPAM was also tested for binding specificity towards mouse PD-L1 (mPD-L1) and human PD-L2 (hPD-L2) using radioactive binding assays. SPAM peptide mRNA was translated in vitro in the presence of [^35S]-methionine to generate [^35S]-labeled SPAM peptide.
(§2) [^35S]-labeled peptides were translated as described above by including 2 μCi labeled methionine (Perkin Elmer) per 10 pmol of template in the translation reaction. Each peptide was tested with a […] (for X9-library derived peptides) (SEQ ID NO: 11) or a […] (for X17-library derived peptides) (SEQ ID NO: 12) C-terminal sequence. […] The supernatant was removed and was counted. The beads were subsequently washed three times with 1 mL of blocking buffer and the washes were also counted. Finally, the beads were resuspended in 1 mL of blocking buffer and were counted separately. The ratio of the counts remaining on the beads to the total counts added to the binding reaction (the sum of the counts for supernatant, washes, and beads) was calculated to determine the percent bound.
Target sequence in this assay (Q9NZQ7 18-239): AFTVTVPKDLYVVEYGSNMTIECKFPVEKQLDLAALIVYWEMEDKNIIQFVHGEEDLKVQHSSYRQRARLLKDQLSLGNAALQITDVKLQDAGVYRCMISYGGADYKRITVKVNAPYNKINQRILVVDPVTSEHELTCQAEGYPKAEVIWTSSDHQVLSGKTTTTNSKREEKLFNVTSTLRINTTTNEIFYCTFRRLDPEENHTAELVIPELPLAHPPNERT

[3] = biological target: T3, CHO-mPD-L1 cells which express mPD-L1 (Mus musculus, UniProt Q9EP73); assay: Antibody competition by flow cytometry on CHO-mPD-L1 cells; assay type: cell-based; details: pre-treatment 0-20 μM, 50 nM antibody
T3 construct: expressed in transfected cells; host or cells: CHO
T3 sequence (Q9EP73 19-290): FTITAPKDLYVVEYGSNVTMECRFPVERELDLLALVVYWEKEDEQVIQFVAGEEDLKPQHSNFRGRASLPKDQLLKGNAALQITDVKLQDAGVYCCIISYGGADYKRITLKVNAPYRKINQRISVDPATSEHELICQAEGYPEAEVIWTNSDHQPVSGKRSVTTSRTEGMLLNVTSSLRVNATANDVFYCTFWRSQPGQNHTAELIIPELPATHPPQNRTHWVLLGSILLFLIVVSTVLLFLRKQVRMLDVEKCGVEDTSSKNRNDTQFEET
Method: We performed similar experiments with CHO-mPD-L1 cells which express mPD-L1 to determine if this effect was specific to hPD-L1 expression. We have developed two cross-reactive anti-hPD-L1/mPD-L1 antibodies, 16373 and 16377. These antibodies were labeled with Fluorescein, titrated against CHO-hPD-L1 and CHO-mPD-L1 cells (FIG. 12B-C) and subjected to competition experiments as described above.
The cells were washed once with cold serum free DMEM and incubated with 1 nM FAM-Atezolizumab, 10 nM FAM-Avelumab, 50 nM FAM-16373, or 50 nM FAM-16377 in serum free DMEM at 4° C. for 30 min. Cells were then washed three times with cold serum free DMEM. Cells were subsequently processed by flow cytometry with a BD FACSCalibur system using the FL1 channel. FlowJo v10.1 was used to gate to the major population and median FL1 fluorescence reported.

[4] = Serum stability of ROX-SPAM by HPLC; assay type: in vitro ADME; details: 25% human serum, 37° C., up to five hours
Method: We first tested SPAM peptide stability by performing an HPLC-based assay to test if SPAM is degraded by human serum. We incubated ROX-labeled SPAM with 25% human serum at 37° C., took aliquots at different time points, then analyzed the products using HPLC.
At times 0, 15, 30, 120 and 300 min, 40 μL was removed and protein precipitated by the addition of 80 μL ethanol. Samples were centrifuged for 10 min at 16,000×g and the supernatant removed for HPLC analysis. A total of 100 μL volume was injected in a HPLC gradient of 10^−95% Buffer B over 15 minutes (Buffer A: dH2O with 0.1% (v/v) TFA, Buffer B: CH3CN+0.1% (v/v) TFA). Detection was performed at 570 nm.

hPD-L1 [5] = biological target: T2, hPD-L1; assay: Fluorescence polarization of ROX-labeled SPAM with glycosylated hPD-L1*; assay type: binding; set-up: The hPD-L1* vector included amino acids A18-T239, an Avi Tag and a hexahistidine tag; hexahistidine tag; made in house; host or cells: Expi293F; details: T=22° C., 100 nM ROX-SPAM, read-out: dissociation constant (KD) for hPD-L1*
Method: To evaluate the affinity of SPAM for hPD-L1 and hPD-L1*, we measured the KD by fluorescence polarization. […] The resulting values were plotted against the concentration of hPD-L1 or hPD-L1* and fit to a one-site saturation binding model with GraphPad Prism.
A stock solution of hPD-L1 or hPD-L1* with a 5 μM starting concentration was prepared and serially diluted to concentrations ranging from 5 μM to 2.4 nM. […] The fluorescence polarization of each sample was measured on a Synergy H4 Hybrid Multi-Mode Microplate Reader. Each measurement was carried out in triplicate and the mean value was calculated. The values were fit to a one-site saturation binding model in GraphPad Prism to obtain the corresponding equilibrium dissociation constants.
Target sequence in this assay (Q9NZQ7 18-239): as the sequence (Q9NZQ7 18-239) above

mouse PD-L1 (mPD-L1) = biological target: T4, mouse PD-L1 (mPD-L1) (Mus musculus, UniProt Q9EP73); assay: Radiolabeled [35S] peptide binding assay on mPD-L1; details: [35S]-labeled peptide
T4 construct: The expression construct for mPD-L1 consisted of its extracellular domain (from A18 to H239) with a methionine added to the N-terminus; hexahistidine tag (C); made in house; host or cells: E. coli BL21 (DE3)
T4 sequence (Q9EP73 with tags, fused parts or gaps): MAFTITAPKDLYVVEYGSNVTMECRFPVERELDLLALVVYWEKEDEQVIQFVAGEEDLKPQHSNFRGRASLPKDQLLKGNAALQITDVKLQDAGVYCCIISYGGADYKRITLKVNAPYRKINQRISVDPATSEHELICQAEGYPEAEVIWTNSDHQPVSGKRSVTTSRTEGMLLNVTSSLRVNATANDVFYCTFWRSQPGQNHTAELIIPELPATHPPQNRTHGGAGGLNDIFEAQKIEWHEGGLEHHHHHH
Method: as §1, §2

hPD-L1 [6] = biological target: T2, hPD-L1; assay: Radiolabeled [35S] peptide binding assay on immobilized hPD-L1; set-up: designed from A18 to T239 with a methionine added to the N-terminus; hexahistidine tag (C); made in house; details: hPD-L1 on streptavidin agarose
Method: as §2
Target sequence in this assay (Q9NZQ7 with tags, fused parts or gaps): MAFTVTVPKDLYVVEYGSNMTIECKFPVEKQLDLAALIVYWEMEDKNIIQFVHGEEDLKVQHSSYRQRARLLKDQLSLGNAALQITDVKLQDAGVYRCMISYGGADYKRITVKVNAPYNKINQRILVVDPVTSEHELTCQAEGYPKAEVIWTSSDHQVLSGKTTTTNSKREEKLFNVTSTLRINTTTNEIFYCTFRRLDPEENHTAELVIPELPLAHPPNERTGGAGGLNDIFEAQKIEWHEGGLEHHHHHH

## C#CC[C@H](NC(=O)CNC(=O)[C@H](CO)NC(=O)[C@H](C)NC(=O)[C@H](Cc1ccc(O)cc1)NC(=O)[C@H](Cc1c[nH]cn1)NC(=O)[C@H](CC(C)C)NC(=O)[C@@H](NC(=O)[C@H](Cc1c[nH]c2ccccc12)NC(=O)[C@H](Cc1ccccc1)NC(=O)[C@H](CCCCN)NC(=O)[C@H](CC(N)=O)NC(=O)[C@H](CC(C)C)NC(=O)[C@@H](NC(=O)[C@H](Cc1c[nH]cn1)NC(=O)[C@H](CC(=O)O)NC(=O)[C@H](CC(C)C)NC(=O)[C@H](Cc1ccccc1)NC(=O)[C@@H](NC(=O)[C@@H]1CCCN1C(=O)[C@@H](N)CCSC)[C@@H](C)CC)[C@@H](C)CC)[C@@H](C)CC)C(N)=O (stereo in doubt) [SPAM]
[1]; pre-incubation 30 min 4° C., 0-20 μM, SPAM effect at 20 μM, 1 nM Atezolizumab, 10 nM Avelumab
  Fluorescein-Atezolizumab and Fluorescein-Avelumab binding to CHO-hPD-L1 after pre-incubation: significant decrease
[1]; pre-treatment 0-20 μM, 50 nM antibody
  blocking of Fluorescein-16373 and Fluorescein-16377 in CHO-hPD-L1 cells: blocking
hPD-L1 [2]
  [35S]-labeled peptide capture by hPD-L1*: captured
[3]
  blocking of Fluorescein-16373 and Fluorescein-16377 in CHO-mPD-L1 cells: blocking was absent
[4]
  degradation in human serum (HPLC): stable
hPD-L1 [5]
  pKd: 7.17
Mouse PD-L1 (mPD-L1)
  binding to mPD-L1: not pulled-down; also recorded: essentially no binding; also recorded: no significant binding
hPD-L1 [6]
  [35S]-labeled peptide pull-down by immobilized hPD-L1: efficiently pulled-down
